Experimental findings from ChEMBL document CHEMBL1126775, “A pharmacological, crystallographic, and quantum chemical study of new inotropic agents” (J Med Chem, 1993) are described below.

Values joined by “and” are separate entries in the source; they are usually repeats but may differ in a detail not shown here. Equal entries are not always repeated.

Test [1] is filed under the species Cavia porcellus. In words: Effect on contractile force of spontaneously beating atria from reserpine treated guinea pigs at the concentration of 10 e-4 M. The test is classed as functional.
For test [2], the species on record is Cavia porcellus. Nature of the test: Effect on frequency rate of spontaneously beating atria from reserpine treated guinea pigs at the concentration of 10 e-3 M. The test is classed as functional.
Test [3] is filed under the species Cavia porcellus. Nature of the test: Effect on frequency rate of spontaneously beating atria from reserpine treated guinea pigs at the concentration of 5 x 10 e-4 M. The test is classed as functional.
The species named for test [4] is Cavia porcellus. Nature of the test: Effect on contractile force of spontaneously beating atria from reserpine treated guinea pigs at the concentration of 10 e-3 M (negative ionotropic effect). It counts as functional.
The species named for test [5] is Cavia porcellus. In words: Effect on contractile force of spontaneously beating atria from reserpine treated guinea pigs at the concentration of 5x 10 e-5 M. The test is classed as functional.
Test [6] is filed under the species Cavia porcellus. In words: Effect on frequency rate of spontaneously beating atria from reserpine treated guinea pigs at the concentration of 10 e-4 M (negative chronotropic ionotropic effect). It counts as functional.
The species named for test [7] is Cavia porcellus. In words: Effect on frequency rate of spontaneously beating atria from reserpine treated guinea pigs at the concentration of 5 x 10 e-5 M (negative chronotropic ionotropic effect).
For test [8], the species on record is Cavia porcellus. In words: Effect on contractile force of spontaneously beating atria from reserpine treated guinea pigs at the concentration of 10 e-5 M. It counts as functional.
Test [9] is filed under the species Cavia porcellus. Nature of the test: Effect on contractile force of spontaneously beating atria from reserpine treated guinea pigs at the concentration of 2 x 10 e-3 M (negative ionotropic effect). It counts as functional.
The species named for test [10] is Cavia porcellus. In words: Effect on contractile force of spontaneously beating atria from reserpine treated guinea pigs at the concentration of 5x 10 e-4 M (negative ionotropic effect). The test is classed as functional.
Test [11] is filed under the species Cavia porcellus. Nature of the test: Effect on frequency rate of spontaneously beating atria from reserpine treated guinea pigs at the concentration of 2 x 10 e-3 M. The test is classed as functional.
The species named for test [12] is Cavia porcellus. In words: Effect on frequency rate of spontaneously beating atria from reserpine treated guinea pigs at the concentration of 2 x 10 e-3 M (negative chronotropic ionotropic effect). The test is classed as functional.
The species named for test [13] is Cavia porcellus. In words: Effect on contractile force of spontaneously beating atria from reserpine treated guinea pigs at the concentration of 10 e-3 M. It counts as functional.
The species named for test [14] is Cavia porcellus. Nature of the test: Effect on contractile force of spontaneously beating atria from reserpine treated guinea pigs at the concentration of 2 x 10 e-3 M. It counts as functional.
The species named for test [15] is Cavia porcellus. Nature of the test: Effect on frequency rate of spontaneously beating atria from reserpine treated guinea pigs at the concentration of 10 e-5 M. It counts as functional.
For test [16], the species on record is Cavia porcellus. In words: Effect on contractile force of spontaneously beating atria from reserpine treated guinea pigs at the concentration of 5x 10 e-4 M. The test is classed as functional.
For test [17], the species on record is Cavia porcellus. In words: Effect on frequency rate of spontaneously beating atria from reserpine treated guinea pigs at the concentration of 10 e-3 M (negative chronotropic ionotropic effect). It counts as functional.
The species named for test [18] is Cavia porcellus. Nature of the test: Effect on frequency rate of spontaneously beating atria from reserpine treated guinea pigs at the concentration of 5 x 10 e-4 M (negative chronotropic ionotropic effect). The test is classed as functional.
For test [19], the species on record is Cavia porcellus. Nature of the test: Effect on frequency rate of spontaneously beating atria from reserpine treated guinea pigs at the concentration of 10 e-4 M. It counts as functional.
For test [20], the species on record is Cavia porcellus. In words: Effect on contractile force of spontaneously beating atria from reserpine treated guinea pigs at the concentration of 5x 10 e-5 M (negative ionotropic effect). The test is classed as functional.
For test [21], the species on record is Cavia porcellus. Nature of the test: Effect on contractile force of spontaneously beating atria from reserpine treated guinea pigs at the concentration of 10 e-4 M (negative ionotropic effect). The test is classed as functional.

Take `CC(C)C(=O)c1ccc(O)nc1C(C)C`: the Increase in the test filed under Cavia porcellus [1] is on record as 16.38%; in the test filed under Cavia porcellus [2] it was 26.33%; in the test filed under Cavia porcellus [3], 20.8%; in the test listed under Cavia porcellus [4] it was -26.37%; in the test listed under Cavia porcellus [5], 11.69%; in the test listed under Cavia porcellus [6] it was -0.99%. The Increase in the test listed under Cavia porcellus [7] is -3.28% and -5.14%; in the test listed under Cavia porcellus [8], 5.34%; in the test filed under Cavia porcellus [9], -44.47%; in the test filed under Cavia porcellus [10], -9.42%; in the test filed under Cavia porcellus [11], 32.13%.
For `N#Cc1cc2c(nc1O)CCCC2=O`, the Increase in the test filed under Cavia porcellus [1] is listed as 16.12%; in the test filed under Cavia porcellus [12], -0.79%; in the test listed under Cavia porcellus [13], 23.3%; in the test filed under Cavia porcellus [14], 13.01%; in the test filed under Cavia porcellus [15], 3.02%; in the test listed under Cavia porcellus [16] it was 25.67%. Moreover, the Increase in the test filed under Cavia porcellus [5] was 7.87%; in the test filed under Cavia porcellus [6] it was -6.06%; in the test listed under Cavia porcellus [7] it was -3.08%; in the test listed under Cavia porcellus [8], 2.59%; in the test filed under Cavia porcellus [17], -0.57%; in the test filed under Cavia porcellus [18] it was -3.85%.
As for `CC(=O)c1cc(C(=O)O)c(O)nc1C`, the Increase is 5.46% in the test listed under Cavia porcellus [1]; -1.39% in the test filed under Cavia porcellus [12]; 11.48% in the test filed under Cavia porcellus [13]; 10.83% in the test listed under Cavia porcellus [14]; 9.55% in the test filed under Cavia porcellus [16]; 5.72% in the test filed under Cavia porcellus [5]. Also, the Increase is -5.67% in the test listed under Cavia porcellus [6]; -4.2% and -4.31% in the test filed under Cavia porcellus [7]; 2.63% in the test listed under Cavia porcellus [8]; -1.43% in the test listed under Cavia porcellus [17]; -2.31% in the test filed under Cavia porcellus [18].
As to `CC1(C)CC(=O)c2ccc(O)nc2C1`, the Increase was 1.05% in the test listed under Cavia porcellus [19]; -3.45% in the test listed under Cavia porcellus [20]; 2.45% in the test listed under Cavia porcellus [13]; 4.71% in the test listed under Cavia porcellus [14]; 0% and 1.27% in the test listed under Cavia porcellus [15]; -3.46% in the test filed under Cavia porcellus [21]. Moreover, the Increase in the test filed under Cavia porcellus [2] is recorded as 1.06%; in the test listed under Cavia porcellus [3], 1.09%; in the test listed under Cavia porcellus [8] it was 0%; in the test listed under Cavia porcellus [10], -5.5%; in the test listed under Cavia porcellus [11], 2.65%.
As for `O=C1CCCc2nc(O)ccc21`, the Increase in the test listed under Cavia porcellus [1] came out at 14.7%; in the test listed under Cavia porcellus [19], 6.26%; in the test listed under Cavia porcellus [13], 25.64%; in the test filed under Cavia porcellus [14] it was 26.56%; in the test filed under Cavia porcellus [15], 0%; in the test listed under Cavia porcellus [16], 23.87%. The Increase in the test listed under Cavia porcellus [2] was determined as 15.52%; in the test listed under Cavia porcellus [3], 12.44%; in the test filed under Cavia porcellus [5] it was 7.65%; in the test filed under Cavia porcellus [8], 0.48%; in the test listed under Cavia porcellus [11] it was 18.17%.
With `O=C1CC(c2ccccc2)Cc2nc(O)ccc21` (stereo not given), the Increase in the test listed under Cavia porcellus [1] amounted to 1.2%; in the test listed under Cavia porcellus [19] it was 5.61%; in the test filed under Cavia porcellus [13] it was 1.73%; in the test listed under Cavia porcellus [14], 3.44%; in the test filed under Cavia porcellus [15], 2.19%; in the test listed under Cavia porcellus [16], 1.46%. The Increase in the test filed under Cavia porcellus [2] was 12.61%; in the test listed under Cavia porcellus [3], 8.85%; in the test listed under Cavia porcellus [5], 4.52%; in the test listed under Cavia porcellus [7] it was -3.42%; in the test listed under Cavia porcellus [8], 2.28%; in the test filed under Cavia porcellus [11], 14.52%.
As to `CC1CC(=O)c2cc(C(=O)O)c(O)nc2C1` (stereo not given), the Increase in the test filed under Cavia porcellus [1] was 4.57%; in the test filed under Cavia porcellus [19] it was 3.58%; in the test listed under Cavia porcellus [13], 8.37%; in the test filed under Cavia porcellus [14], 11.38%; in the test filed under Cavia porcellus [15], 1.5% and 2.78%; in the test listed under Cavia porcellus [16], 8.53%. For the same compound, the Increase in the test filed under Cavia porcellus [2] was determined as 7.38%; in the test filed under Cavia porcellus [3], 6.53%; in the test listed under Cavia porcellus [5] it was 3.78%; in the test filed under Cavia porcellus [8], 2.55%; in the test listed under Cavia porcellus [11], 10.36%.
As for `CC(C)C(=O)c1cc(C#N)c(O)nc1C(C)C`, the Increase in the test filed under Cavia porcellus [1] is 1.42%; in the test listed under Cavia porcellus [19], 9.64%; in the test filed under Cavia porcellus [15], 2.33% and 5.14%; in the test filed under Cavia porcellus [2] it was 22.83%; in the test listed under Cavia porcellus [3] it was 18.85%; in the test listed under Cavia porcellus [4], -67.64%. Moreover, the Increase was 11.62% in the test filed under Cavia porcellus [5]; 8.22% in the test listed under Cavia porcellus [8]; -86.43% in the test filed under Cavia porcellus [9]; -34.43% in the test filed under Cavia porcellus [10]; 16.27% in the test listed under Cavia porcellus [11].
For `O=C(O)c1cc2c(nc1O)CC(c1ccccc1)CC2=O` (stereo not given), the Increase in the test listed under Cavia porcellus [12] was -27.07%; in the test listed under Cavia porcellus [14], -27.77%; in the test listed under Cavia porcellus [15] it was 0.58% and 1.22%; in the test filed under Cavia porcellus [21], -1.21%; in the test listed under Cavia porcellus [4] it was -23.77%; in the test listed under Cavia porcellus [5] it was 2.21%. Further, the Increase in the test listed under Cavia porcellus [6] is recorded as -1.21%; in the test listed under Cavia porcellus [8], 1.53%; in the test filed under Cavia porcellus [17], -13.88%; in the test filed under Cavia porcellus [10], -7.59%; in the test filed under Cavia porcellus [18], -4.58%.
With `CC(C)C(=O)c1cc(C(=O)O)c(O)nc1C(C)C`, the Increase was 6.01% in the test filed under Cavia porcellus [19]; -82.26% in the test filed under Cavia porcellus [13]; 0.58% and 0.75% in the test listed under Cavia porcellus [15]; -8.88% in the test filed under Cavia porcellus [21]; 16.19% in the test listed under Cavia porcellus [2]; 23.17% in the test listed under Cavia porcellus [3]. Moreover, the Increase in the test filed under Cavia porcellus [5] is listed as 3.21%; in the test listed under Cavia porcellus [8], 3.46%; in the test listed under Cavia porcellus [9] it was -99.99%; in the test filed under Cavia porcellus [10], -49.63%; in the test listed under Cavia porcellus [11] it was 11.35%.
For `CC1(C)CC(=O)c2cc(C(=O)O)c(O)nc2C1`, the Increase is 1.66% in the test listed under Cavia porcellus [1]; 0.88% in the test listed under Cavia porcellus [19]; -4.76% in the test listed under Cavia porcellus [12]; 0.41% and 1.8% in the test filed under Cavia porcellus [15]; -0.69% in the test listed under Cavia porcellus [16]; -3.94% in the test filed under Cavia porcellus [4]. In addition, the Increase in the test filed under Cavia porcellus [5] is reported as 2.7%; in the test listed under Cavia porcellus [8], 0.51%; in the test listed under Cavia porcellus [9], -4.46%; in the test listed under Cavia porcellus [17], -2.94%; in the test filed under Cavia porcellus [18], -0.69%.
With `CC(=O)c1ccc(O)nc1C`, the Increase was 10.35% in the test listed under Cavia porcellus [1]; 4.7% in the test filed under Cavia porcellus [19]; 10.27% in the test filed under Cavia porcellus [13]; 10.35% in the test listed under Cavia porcellus [14]; 1.79% and 4.14% in the test listed under Cavia porcellus [15]; 9.72% in the test listed under Cavia porcellus [16]. For the same compound, the Increase in the test listed under Cavia porcellus [2] worked out at 10.85%; in the test filed under Cavia porcellus [3] it was 10.85%; in the test filed under Cavia porcellus [5], 5.84%; in the test listed under Cavia porcellus [8], 5.35%; in the test filed under Cavia porcellus [11], 14.19%.
For `CC(C)(C)C(=O)c1cc(C#N)c(O)nc1C(C)(C)C`, the Increase in the test listed under Cavia porcellus [12] is -15.71%; in the test listed under Cavia porcellus [15], 2.98% and 0.28%; in the test listed under Cavia porcellus [21] it was -16.07%; in the test filed under Cavia porcellus [4], -81.39%; in the test filed under Cavia porcellus [5] it was 11.34%; in the test listed under Cavia porcellus [6], -0.44%. For the same compound, the Increase in the test filed under Cavia porcellus [8] is 7.34%; in the test filed under Cavia porcellus [9], -89.11%; in the test listed under Cavia porcellus [17] it was -14.41%; in the test filed under Cavia porcellus [10], -66.56%; in the test filed under Cavia porcellus [18] it was -6.73%.
